Data reported in article PMC10314922, “Fluorescence lifetime FRET assay for live-cell high-throughput screening of the cardiac SERCA pump yields multiple classes of small-molecule allosteric modulators” (Scientific Reports, 2023).
Values joined by “and” are separate entries in the source; they are usually repeats but may differ in a detail not shown here. Identical values can stand only once.

Columns and labels:
[1] = target: T1, SERCA2a (Sus scrofa, UniProt P11607); assay: NADH-linked Ca2+-ATPase activity assay in pig cardiac SR (pCSR) vesicles; assay type: biochemical; settings: for Ca2+-ATPase ΔFMAX / Ca2+-ATPase ΔFMID: maximal compound effect vs DMSO control, pCSR; for Effect on Ca2+-ATPase activity (category, Fig. 4A): activators, categories activate / uncouple / inhibit
T1 construct: Cardiac SR vesicles were isolated from fresh porcine left ventricular tissue using differential centrifugation; from tissue; host or cells: porcine left ventricular tissue (cardiac SR vesicles)
T1 sequence (P11607 1-997 isoform P11607-2): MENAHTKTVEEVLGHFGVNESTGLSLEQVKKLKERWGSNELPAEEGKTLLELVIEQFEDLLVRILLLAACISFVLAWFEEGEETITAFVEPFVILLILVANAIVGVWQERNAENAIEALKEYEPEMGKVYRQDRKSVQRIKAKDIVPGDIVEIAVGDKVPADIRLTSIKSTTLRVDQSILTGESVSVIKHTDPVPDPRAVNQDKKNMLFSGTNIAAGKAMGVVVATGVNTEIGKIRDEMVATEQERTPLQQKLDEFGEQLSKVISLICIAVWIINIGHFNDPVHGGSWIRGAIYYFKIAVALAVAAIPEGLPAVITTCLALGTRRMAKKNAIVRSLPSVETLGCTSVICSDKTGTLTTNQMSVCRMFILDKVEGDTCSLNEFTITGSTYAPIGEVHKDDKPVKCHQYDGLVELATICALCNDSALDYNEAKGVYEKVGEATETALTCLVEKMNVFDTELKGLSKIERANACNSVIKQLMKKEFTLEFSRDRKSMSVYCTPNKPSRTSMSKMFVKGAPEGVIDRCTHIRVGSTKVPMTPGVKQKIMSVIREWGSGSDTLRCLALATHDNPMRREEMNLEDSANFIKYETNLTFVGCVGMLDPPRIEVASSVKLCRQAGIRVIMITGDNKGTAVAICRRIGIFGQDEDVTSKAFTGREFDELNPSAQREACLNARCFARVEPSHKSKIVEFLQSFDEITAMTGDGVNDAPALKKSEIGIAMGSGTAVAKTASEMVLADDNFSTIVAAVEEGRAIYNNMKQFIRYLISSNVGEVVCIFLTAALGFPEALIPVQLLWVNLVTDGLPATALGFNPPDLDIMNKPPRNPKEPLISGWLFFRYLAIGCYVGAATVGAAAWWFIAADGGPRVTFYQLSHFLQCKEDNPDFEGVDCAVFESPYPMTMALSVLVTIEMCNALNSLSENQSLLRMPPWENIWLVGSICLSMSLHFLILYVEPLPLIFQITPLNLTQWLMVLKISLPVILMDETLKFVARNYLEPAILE
Procedure: (§1) Cardiac SR vesicles were isolated from fresh porcine left ventricular tissue using differential centrifugation of the homogenized tissue as previously described. The SR vesicles were flash-frozen and stored at − 80 °C until needed. The SERCA concentration in the ER preparations purified from HEK cell homogenate is at least 10 times less than in purified porcine cardiac SR[20], but there was sufficient expression of the fluorescent SERCA2a biosensor in HEK cells to detect FRET with high precision by FLT[22],[23],[26].
Functional assays were performed using porcine cardiac SR (pCSR) vesicles. An enzyme-coupled, NADH-linked ATPase assay was used to measure SERCA ATPase activity in 384-well microplates. Each well contained 50 mM MOPS (pH 7.0), 100 mM KCl, 1 mM EGTA, 0.2 mM NADH, 1 mM phosphoenol pyruvate, 10 IU/mL of pyruvate kinase, 10 IU/mL of lactate dehydrogenase, 7 µM of the calcium ionophore A23187 (Sigma), and CaCl2 was added to set free [Ca^2+] to three different concentrations. Ca^2+-ATPase activity was measured at three [Ca^2+]: [Ca^2+]MAX (saturating, pCa 5.4), [Ca^2+]MID (subsaturating, midpoint, pCa 6.2), and [Ca^2+]BAS (basal non-activating, pCa 8.0). 10 μg/mL of SR vesicle, calcium, compound (0.048 to 50 μM), and assay mix were incubated for 20 min at room temperature before measurement of functional assays with each of the 18 hit compounds, because a shorter incubation time than the FRET live-cell assays achieved optimal responses. The assay was started upon the addition of MgATP, at a final concentration of 5 mM (total volume to 80 μL), and absorbance was read at 340 nm in a SpectraMax Plus^384 microplate spectrophotometer (Molecular Devices, Sunnyvale, CA).
(§2) SERCA2a activity, F (rate of ATP hydrolysis or Ca^2+ uptake), was measured at varying pCa and varying compound concentration. F measured at [Ca^2+]MAX (saturating, pCa 5.4) or [Ca^2+]MID (subsaturating, midpoint, pCa 6.2) was corrected by subtracting the basal rate at pCa 8.0) and the % effect due to compound was reported. Concentration response curves (CRC) were fitted using the Hill function to determine VMAX (the activity at saturating [compound]), and EC50, the compound concentration at 50% effect.

[2] = target: T1, SERCA2a; assay: Oxalate-supported Fluo-4 Ca2+-uptake (Ca2+-transport) assay in pig cardiac SR (pCSR) vesicles; assay type: biochemical; settings: for Ca2+-Uptake C10: concentration yielding 10% effect; for Ca2+-Uptake ΔFMAX / Ca2+-Uptake ΔFMID: maximal compound effect vs DMSO control, pCSR; for Effect on Ca2+-uptake (category, Fig. 4A): activators, categories activate / uncouple / inhibit; for CR (coupling ratio) VU/VA: maximum Ca2+-uptake rate / Ca2+-ATPase rate at [Ca2+]MAX, DMSO control = 0.66; for Increase in Ca2+-uptake: over [Ca2+]MAX and [Ca2+]MID; for Decrease (inhibition) of Ca2+-uptake at [Ca2+]MAX: size of decrease
Procedure: as §1
Ca^2+-transport assays were performed with similar porcine SR samples as in the Ca^2+-ATPase assays described above. The compound effect on the Ca^2+-transport activity of SERCA2a was determined using an oxalate-supported assay in which the change in fluorescence in a Ca^2+-sensitive dye, Fluor-4, was determined as previously described. A buffered solution containing 50 mM MOPS (pH 7.0), 100 mM KCl, 30 mg/mL sucrose, 1 mM EGTA, 10 mM potassium oxalate, 2 µM Fluo-4, 30 µg/mL porcine cardiac SR vesicles, CaCl2 calculated to reach the free [Ca^2+] (pCa 8.0, 6.2, and 5.4), and compound (0.048 to 50 μM) was dispensed into 384-well black walled, transparent bottomed plates (Greiner Bio-One) containing the tested small molecule and incubated at 22℃ for 20 min while covered and protected from light. To start the reaction, MgATP was added to a final concentration of 5 mM, and the decrease in 485-nm excited fluorescence of Fluo-4 was monitored at 520 nm for 15 min using a FLIPR Tetra (Molecular Devices, San Jose, CA).
as §2

[3] = [Ca2+]MAX (pCa5.4), concentration yielding 10% effect
[4] = [Ca2+]MID (pCa6.2), concentration yielding 10% effect

| SMILES | EC50 ([1]; [Ca2+]MAX (pCa5.4)) | Ca2+-ATPase C10 [1, 3] | EC50 ([1]; [Ca2+]MID (pCa6.2)) | Ca2+-ATPase C10 [1, 4] | EC50 ([2]; [Ca2+]MAX (pCa5.4)) | Ca2+-Uptake C10 ([2]; [Ca2+]MAX (pCa5.4)) | EC50 ([2]; [Ca2+]MID (pCa6.2)) | Ca2+-Uptake C10 ([2]; [Ca2+]MID (pCa6.2)) | Ca2+-ATPase ΔFMAX ([1]; [Ca2+]MAX (pCa5.4)) | Ca2+-ATPase ΔFMID ([1]; [Ca2+]MID (pCa6.2)) | Effect on Ca2+-ATPase activity (category, Fig. 4A) [1] | Ca2+-Uptake ΔFMAX ([2]; [Ca2+]MAX (pCa5.4)) | Ca2+-Uptake ΔFMID ([2]; [Ca2+]MID (pCa6.2)) | Effect on Ca2+-uptake (category, Fig. 4A) [2] | CR (coupling ratio) VU/VA [2] | Ca2+-ATPase C10 ([1]; [Ca2+]MAX) | Increase in Ca2+-uptake [2] | Increase in Ca2+-ATPase activity [1] | Decrease (inhibition) of Ca2+-uptake at [Ca2+]MAX [2] |
| --- | --- | --- | --- | --- | --- | --- | --- | --- | --- | --- | --- | --- | --- | --- | --- | --- | --- | --- | --- |
| OCC1(Cc2ccccc2F)CCCN(Cc2cc3c(cc2Cl)OCO3)C1 (centres unmarked) [Compound 12, [1-[(6-chloro-1,3-benzodioxol-5-yl)methyl]-3-(2-fluorobenzyl)-3-piperidinyl]methanol] | 3.8 ± 0.3 µM | 1.0 µM | 4.2 ± 0.4 µM | 1.0 µM | 1.8 ± 0.1 µM | 0.4 µM | 3.2 ± 0.1 µM | 0.8 µM | – | – | – | – | – | – | – | – | – | – | – |
| CCn1nc(C)c(CN2CCCC(Nc3ccc(C(C)C)cc3)C2)c1C (centres unmarked) [Compound 7, 1-[(1-ethyl-3,5-dimethyl-1H-pyrazol-4-yl)methyl]-N-(4-isopropylphenyl)-3-piperidinamine] | – | 25 µM | – | – | – | 14 µM | – | 21 µM and 20.6 µM | 14% and 14 ± 2% | 7% and 7 ± 3% | activate | 24% and 24 ± 10% | 19% and 19 ± 9.8% | activate | 0.74 | – | – | – | – |
| COc1ccc(C(=O)C2CCCN(Cc3nc(-c4ccc(F)cc4)cs3)C2)c(OC)c1 (centres unmarked) [Compound 8, (2,4-dimethoxyphenyl)(1-{[4-(4-fluorophenyl)-1,3-thiazol-2-yl]methyl}-3-piperidinyl)methanone] | 8.3 ± 0.9 µM | 4.3 µM | 10 ± 1.9 µM | 7.8 µM | – | 25 µM | – | – | 49% and 49 ± 4.8% | 31% and 31 ± 14% | activate | 10% and 10 ± 6.5% | 7% and 7 ± 3.0% | uncouple | 0.4 | 4.3 µM | 0.5–10% | – | – |
| Cc1cnc(C)c(N2CCN(C(=O)c3cc(COc4ccc5ncccc5c4)on3)CC2)n1 [Compound 1, 6-[(3-{[4-(3,6-dimethyl-2-pyrazinyl)-1-piperazinyl]carbonyl}-5-isoxazolyl)methoxy]quinoline] | – | – | – | – | – | 50 µM | – | – | 8 ± 6.3% | 8 ± 5.8% | activate | – | 2% and 2 ± 1.0% | inhibit | 0.49 | – | – | 10–25% | 10% |
| O=C(c1ccc(-c2ccc(O)cc2)nc1)N1CCC(CCc2ccccc2)CC1 [Compound 6, 4-(5-{[4-(2-phenylethyl)piperidin-1-yl]carbonyl}pyridin-2-yl)phenol] | – | 9.7 µM | 11.1 ± 1.5 µM | 8.7 µM | 16 ± 1.2 µM | 15 µM and 15.1 µM | 2.9 ± 1 µM | 4 µM and 4.2 µM | 25% and 25 ± 6.3% | 30% and 30 ± 10% | activate | – | 17% and 17 ± 1.4% | inhibit | 0.48 | – | – | 10–25% | 21% |
| c1ccc(-c2cc(CN3CCN(c4ncnc5ccccc45)CC3)on2)cc1 [Compound 4, 4-{4-[(3-phenyl-5-isoxazolyl)methyl]-1-piperazinyl}quinazoline] | 15 ± 7.2 µM | 50.0 µM | – | 39.2 µM | – | – | – | 47 µM | 10 ± 5.3% | 11 ± 6.1% | activate | 0.5% and 0.5 ± 3.2% | 11% and 11 ± 2.7% | uncouple | 0.51 | – | 0.5–10% | – | – |
